Laboratory results from PubChem BioAssay (NCI).
Several values for one entry are separate records, joined by “and”; a condition that tells them apart may be missing. Equal values may be shown once.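 Briefly, cells in 96-well plates were exposed to five compound concentrations for 48 h, and endpoints were estimated by linear interpolation. Abbreviation: GI50, concentration required for 50% inhibition of growth. TGI: total growth inhibition.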

What was measured:
Assay in all cases: growth of human tumour cells (NCI), 48 h
SK-MEL-28 melanoma = tested on: SK-MEL-28 melanoma
M14 melanoma = tested on: M14 melanoma
A498 renal = tested on: A498 renal
UACC-62 melanoma = tested on: UACC-62 melanoma
PC-3 prostate = tested on: PC-3 prostate
OVCAR-4 ovarian = tested on: OVCAR-4 ovarian
ACHN renal = tested on: ACHN renal
SK-MEL-5 melanoma = tested on: SK-MEL-5 melanoma
LOX IMVI melanoma = tested on: LOX IMVI melanoma
SR leukemia = tested on: SR leukemia

| Compound | GI50 (SK-MEL-28 melanoma) | GI50 (M14 melanoma) | TGI (M14 melanoma) | GI50 (A498 renal) | TGI (A498 renal) | GI50 (UACC-62 melanoma) | TGI (UACC-62 melanoma) | GI50 (PC-3 prostate) | GI50 (OVCAR-4 ovarian) | TGI (OVCAR-4 ovarian) | GI50 (ACHN renal) | TGI (ACHN renal) | GI50 (SK-MEL-5 melanoma) | TGI (SK-MEL-5 melanoma) | GI50 (LOX IMVI melanoma) | TGI (SK-MEL-28 melanoma) | TGI (PC-3 prostate) | TGI (LOX IMVI melanoma) | TGI (SR leukemia) | GI50 (SR leukemia) |
| --- | --- | --- | --- | --- | --- | --- | --- | --- | --- | --- | --- | --- | --- | --- | --- | --- | --- | --- | --- | --- |
| Cc1cc(Cl)ccc1Nc1nc(C(F)(F)F)ccc1C(=O)N/N=C/c1ccc([N+](=O)[O-])cc1 | 1.22 µM | 2.18 µM | 7.96 µM | 1.41 µM | 7.1 µM | 2.6 µM | 11.7 µM | 0.598 µM | 0.602 µM | > 20 µM | 1.08 µM | 5.14 µM | 1.87 µM | 4.08 µM | 1.16 µM | – | – | – | – | – |
| CC(C)c1cccc(C(C)C)c1NC(=O)/C(CC(=O)CC(c1ccccc1)c1c(O)c2ccccc2oc1=O)=N/O (stereo not given) | – | – | > 100 µM | – | > 100 µM | – | > 100 µM | – | – | > 100 µM | – | > 100 µM | – | > 100 µM | – | > 100 µM | > 100 µM | > 100 µM | – | – |
| OC1(c2ccccc2)OC(C#Cc2ccccc2)(c2ccccc2)c2ccccc21 (stereo not given) | – | – | 3.97 µM | – | 10.1 µM | – | 3.84 µM | – | – | 5.85 µM | – | – | – | 20.2 µM | – | – | – | 11.2 µM | 9.39 µM | – |
| O=C(c1ccncc1)n1nc(-c2ccccc2)c(N=Nc2ccccc2[N+](=O)[O-])c1-c1ccccc1 | – | – | > 100 µM | – | > 100 µM | – | > 100 µM | – | – | > 100 µM | – | – | – | > 100 µM | – | > 100 µM | – | – | > 100 µM | – |
| COC1OC(CO)C(O)C1N (stereo not given) | – | – | > 100 µM | – | > 100 µM | – | > 100 µM | – | – | > 100 µM | – | > 100 µM | – | > 100 µM | – | > 100 µM | – | > 100 µM | > 100 µM | – |
| CC1=C(C(=O)Nc2cccc(Cl)c2)C(c2ccccc2F)C(C(=O)Nc2cccc(Cl)c2)=C(C)N1 | – | – | 18 µM | – | 38.6 µM | – | – | – | – | 21.3 µM | – | 46 µM | – | 29.5 µM | – | 23 µM | – | 21.1 µM | – | – |
| CN(C)CC1CCC/C1=N\O (stereo not given) | – | – | > 100 µM | – | > 100 µM | – | > 100 µM | – | – | > 100 µM | – | > 100 µM | – | > 100 µM | – | > 100 µM | – | > 100 µM | > 100 µM | – |
| C/C(CCc1ccccc1)=N\NC(N)=S | – | – | > 100 µM | – | > 100 µM | – | > 100 µM | – | – | > 100 µM | – | > 100 µM | – | > 100 µM | – | > 100 µM | – | > 100 µM | > 100 µM | – |
| Cc1ccccc1C1=C(C(=O)Nc2ccc(Cl)c(Cl)c2)NC(=S)NC1N (stereo not given) | – | – | > 100 µM | – | > 100 µM | – | > 100 µM | – | – | > 100 µM | – | > 100 µM | – | > 100 µM | – | > 100 µM | – | > 100 µM | – | – |
| C[C@]12CCCC(=O)C1(O)C[C@H](C(=O)O)CC2 (stereo not given in full) | – | – | > 100 µM | – | > 100 µM | – | > 100 µM | – | – | > 100 µM | – | > 100 µM | – | > 100 µM | – | > 100 µM | – | > 100 µM | > 100 µM | – |
| COC(=O)c1ccccc1NC(=O)C(=O)NNC(=O)c1ccncc1 | – | – | > 100 µM | – | – | – | > 100 µM | – | – | > 100 µM | – | > 100 µM | – | > 100 µM | – | > 100 µM | – | > 100 µM | > 100 µM | – |
| CC[C@]1(O)C(=O)OCc2c1cc1n(c2=O)Cc2cc3c(N)cccc3nc2-1 | – | – | > 100 µM | – | > 100 µM | – | > 100 µM | – | – | > 100 µM | – | > 100 µM | – | > 100 µM | – | > 100 µM | – | > 100 µM | > 100 µM | – |
| N#CCCN(CCC#N)c1ccc(C(Sc2ccccc2)C(NC(=O)c2cc([N+](=O)[O-])ccc2Cl)C(=O)Sc2ccccc2)cc1 (stereo not given) | 3.24 µM | 1.61 µM | 4.07 µM | – | – | 2.58 µM | 6.02 µM and 10.5 µM | – | 3.92 µM | 15.7 µM | 2.81 µM | 16.3 µM | – | 15.6 µM | – | 7.06 µM and 14.2 µM | – | 5.71 µM | 3.9 µM | – |
| NC(=S)NNc1c([N+](=O)[O-])cnn(-c2ccccc2)c1=O | – | – | 28.4 µM | – | – | – | 24.4 µM | – | – | 31.8 µM | – | 32.7 µM | – | 33.2 µM | – | 30.8 µM | – | 23.7 µM | > 100 µM | – |
| CCOC(=O)/C=C1\CCCC12OCCO2 | – | – | > 100 µM | – | > 100 µM | – | > 100 µM | – | – | > 100 µM | – | > 100 µM | – | > 100 µM | – | > 100 µM | – | – | > 100 µM | – |
| Fc1cc2[nH]ncc2c2c3c(c(-c4cn[nH]c4C(F)(F)F)nc12)C1CCC3C1 (stereo not given) | 0.889 µM | 0.791 µM | 3.53 µM | 0.591 µM | 1.25 µM | 0.878 µM | 3.39 µM | – | 2.68 µM | 23.4 µM | 0.532 µM | 3.2 µM | 0.74 µM | 1.52 µM | 0.818 µM | 2.84 µM | – | 3.33 µM | > 50 µM | 0.645 µM |
| O=C1c2cc(Cl)ccc2-c2c1c1ccc([N+](=O)[O-])cc1c(=O)n2CCCBr | 33.5 µM | 3.91 µM | 64.2 µM | 24.2 µM | > 100 µM | 3.45 µM | 39.8 µM | 19.2 µM | 78.2 µM | > 100 µM | 2.42 µM | 7.25 µM | 3.21 µM | 24.3 µM | 2.37 µM | > 100 µM | > 100 µM | 24 µM | – | – |
| COC(=O)[C@]12CCC(C)[C@H](C)[C@H]1C1=CCC3[C@@]4(C)CC[C@H](OC(C)=O)C(C)(C)C4CC[C@@]3(C)C1(C)C(O)C2 (stereo not given in full) | – | – | > 100 µM | – | > 100 µM | – | > 100 µM | – | – | > 100 µM | – | > 100 µM | – | > 100 µM | – | > 100 µM | – | > 100 µM | > 100 µM | – |
| O=C(N/N=C(/CCN1CCCC1)CC(c1ccccc1)c1c(O)c2ccccc2oc1=O)c1ccncc1 (stereo not given) | – | – | > 100 µM | – | > 100 µM | – | > 100 µM | – | – | > 100 µM | – | > 100 µM | – | > 100 µM | – | – | – | > 100 µM | 48.6 µM | – |
| CN(C)/N=C(/c1nc2ccc(Cl)cc2[nH]c1=O)C(O)c1ccc(C(O)/C(=N\N(C)C)c2nc3ccc(Cl)cc3[nH]c2=O)cc1 (stereo not given) | – | – | > 100 µM | – | > 100 µM | – | > 100 µM | – | – | > 100 µM | – | > 100 µM | – | > 100 µM | – | > 100 µM | – | – | > 100 µM | – |
| C/C=C/C=C/C=C/C=C/C(=O)O | – | – | > 100 µM | – | > 100 µM | – | > 100 µM | – | – | > 100 µM | – | > 100 µM | – | > 100 µM | – | > 100 µM | – | > 100 µM | > 100 µM | – |
